Laboratory results reported in patent publication US12391799B2, “Peptoid polymers and methods of use” (X-Therma, Inc., priority 2017, dated 2025).
Entries after “also recorded” stand apart in the source; their conditions may differ.

What was measured:
[1] = tested on: K562 cells; experiment: K562 viability after storage at −20° C. for 3 days (Alamar Blue); format: cell-based; settings: 1% peptoid in XT Formula, K562 stored at −20° C. for 3 days, vs. XT Formula alone
Experimental: Several compounds were examined in XT Formula at 1% concentration (i.e., 1% peptoid polymer concentration) for their ability to increase the viability of cells subjected to super-cooled storage. XT Formula contains HTK buffer, among other components. In particular, the effects of these compounds on the viability of K562 cells stored at −20° C. for 3 days were evaluated. An Alamar Blue assay was used to assess cell viability 7 days after stored cells were thawed.

[2] = tested on: K562 cells; experiment: K562 survival after storage at −80° C. for 3 days (Alamar Blue); format: cell-based; settings: 1% peptoid in XT Formula, K562 stored at −80° C. for 3 days
Experimental: Several compounds were examined in XT Formula at 1% concentration (i.e., 1% peptoid polymer concentration) for their effects on the cryopreservation of cells. In particular, the effects of these compounds on the survival of K562 cells stored at −80° C. for 3 days were evaluated. An Alamar Blue assay was used to assess cell survival 1 day after stored cells were thawed. A 10% DMSO formula and DMEM cell media only were used as controls.

[3] = Vitrification screening assay (critical EG concentration); format: physicochemical; settings: lowest EG for complete vitrification of 20 μL sample, 5 mg/mL peptoid in formulation, liquid nitrogen immersion
Experimental: As another means of increasing the throughput of library analysis, a vitrification screening assay was performed to evaluate anti-icing efficacy. For these experiments the compounds named “Compound 11,” “Compound 12,” “Compound 25,” Compound 26,” “Compound 27,” “Compound 28,” “Compound 60,” “Compound 62,” “Compound 63,” “Compound 64,” “Compound 69,” “Compound 70,” “Compound 71,” “Compound 72,” “Compound 73,” “Compound 74,” “Compound 75,” “Compound 76,” “Compound 77,” “Compound 78,” “Compound 81,” “Compound 82,” “Compound 83,” “Compound 84,” and “Compound 85” were tested.
For these experiments, 20 μL samples were flash frozen by liquid immersion in liquid nitrogen. Ethylene glycol (EG) concentrations between 5% and 25% (v/v) were used. A concentration of 5 mg/mL of peptoid polymer compounds were used in formulation. Table 12 lists the lowest concentration of EG necessary to bring about complete vitrification of a 20 μL sample with peptoid polymer in formulation, referred to as the “critical EG concentration.” A sample of formulation without the presence of a peptoid polymer was only able to bring about vitrification at 20% or more EG. Peptoid polymers of interest were able to bring about vitrification within formulas containing EG when the concentration of EG was lower than 20%.

[4] = tested on: K562 cells; experiment: Cell toxicity assay in K562 cell culture; format: cell-based; settings: 1% concentration, 24 hours at 37° C. and 5% CO2
Experimental: The cytotoxicity of several compounds were evaluated using a typical cell toxicity assay in K562 cell culture. […] As a positive control, some cells were incubated without any peptoid polymer (DMEM). For a negative control, cells were incubated with DMSO (DMEM+10% DMSO).

[5] = Larger volume flash freeze / rewarm / −20° C. storage assay; format: physicochemical; settings: 22.5% EG
Experimental: In order to test the usefulness of peptoid polymers at larger scales, experiments were performed using solution volumes that are similar to volumes used for standard egg and stem cell preservation. For these experiments, two samples, one containing 22.5% EG and buffer only, and another containing 22.5% EG and 5 mg/ml (0.5% w/v) of Compound 12 and buffer, were flash frozen in liquid nitrogen. […] The rewarming of the solutions in a 37° C. water bath led to an unexpected and beneficial result. The Compound 12 solution bypassed devitrification in less than 2 seconds upon rewarming (FIG. 6B, right), whereas chunks of ice were seen floating in the control sample (FIG. 6B, left) after 20 seconds. Condensation was seen on each of the tubes because the tubes were actually still much below room temperature.

[6] = Crystallographic x-ray diffraction (XRD) ice crystal formation assay; format: physicochemical
Experimental: In order to increase the throughput of library analysis, a crystallographic x-ray diffraction (XRD) technique was used to evaluate ice crystal formation. For these experiments, the compounds named “Compound 2,” “Compound 8,” “Compound 10,” “Compound 11,” “Compound 12,” “Compound 13,” and “Compound 58” were tested. Compound 58 is similar to Compound 12, except that an arginine amino acid has been appended to the N-terminal end.
For these experiments, EG concentrations between 15% and 30% (v/v) were used. Typically, EG, DMSO, and other cryoprotectants are used during XRD sample analysis at concentrations of 35-40% (v/v) to vitrify solutions and avoid diffraction interference from ice crystals. Concentrations of 1 and 5 mg/mL of the peptoid and peptoid-peptide compounds were used. FIGS. 3A, 3B, and 3C illustrate exemplary XRD data under conditions of complete vitrification, partial vitrification with the presence of cubic ice, and freezing ([…]), respectively. FIG. 3D provides ice rings scores for a variety of EG concentrations and two concentrations of Compounds 2, 8, and 12.
“IceRing1” and “IceRing2” refer to ice formation scores, which range between 0 (no ice formation) and 15 (large ice formation).

[7] = tested on: HEK 293 cells; experiment: Cryopreservation assay, flash freezing in liquid nitrogen, Calcein AM viability; format: cell-based, human
Experimental: Initial cryopreservation assays were performed using very simple solutions, with and without the addition of Compound 12, in order to minimize confounding outside factors. For this first set of experiments, two sample solutions were prepared. The first sample solution contained simple buffer and ethylene glycol (EG) at a concentration of 22.5% (v/v), and the second sample solution contained simple buffer, EG (22.5% (v/v)), and 5 mg/mL (0.5% (w/v)) of Compound 12.
HEK 293 cells were grown until 70% confluent, then treated with trypsin to remove adhesion proteins and yield free floating cells. Cells were counted using a hemocytometer and sample cell concentrations were adjusted to final concentrations of 10,000 cells per microliter. Cells were then compressed into tight pellets by centrifugation, and each sample was subsequently mixed with 20 μL of one of the sample solutions. Samples were then flash frozen by immersion in liquid nitrogen, followed by rewarming in a 37° C. water bath. After the freeze-thaw process, cells were suspended in a 400× volume of culture media for recovery. The positive control sample was treated with culture media at 37° C. and not subjected to the freeze-thaw process. The negative control sample was treated with culture media only during the freeze-thaw process. After recovery, cells were stained with Calcein AM for 30 minutes and cell viability was measured using a fluorescence plate reader.
A second set of experiments was performed to evaluate the cryopreservation potential of a formulation that contained 5 mg/mL of Compound 12 plus a mixture of glycols, disaccharides, and a general buffer. Post-thaw survival following vitrification in liquid nitrogen was evaluated as described above.

[8] = tested on: HEK 293 cell line; experiment: Cell-based cytotoxicity assay (MTT); set-up: species or system human
Experimental: A Tecan Genesis Robotic Workstation was used to prepare solutions in 96- and 384-well plates. Solutions contained culture media, buffers, a cryoprotectant composition (Compound 12) or DMSO. Solutions were adjusted to the desired pH. Serial dilutions were performed to obtain solutions containing various concentrations of Compound 12 and DMSO. Control experiments were performed using only culture media.
For these experiments, cells were seeded at low density (i.e., 10% confluence), exposed to solutions containing Compound 12 or DMSO, and placed in a 37° C. incubator. The cells were allowed to grow until control cells that were treated only with empty vehicle approached 70% confluence (typically about 3 to 5 days). Assessment for compound cytotoxicity was via MTT assay.

[9] = 160 mM ethylene glycol in MilliQ water, slow cooled, −20° C., one hour
Experimental: In this experiment, four water-based samples were prepared in capillary tubes containing MilliQ purified water. One sample contained only water, and another sample contained 160 mM ethylene glycol (EG). The other two samples each contained a peptoid polymer at 9 mM.
After sample preparation, all samples were slow cooled and incubated at −20° C. on a Peltier cooled plate. After one hour, samples were removed and immediately photographed using a digital camera attached to a 180× Stereo Zoom microscope (FIG. 2A).

With `CCC(C)NCC(=O)N(CC(=O)N(CCCN1CCCC1=O)CC(=O)N(CCCN1CCCC1=O)CC(=O)N(CC(=O)N(CC(=O)N(CCCN1CCCC1=O)CC(=O)N(CCCN1CCCC1=O)CC(=O)N(CC(=O)N(CC(N)=O)C(C)CC)C(C)CC)C(C)CC)C(C)CC)C(C)CC` (stereo not drawn) [Compound 76, Nsb-Nsb-Nop-Nop-Nsb-Nsb-Nop-Nop-Nsb-Nsb] the “cell viability 7 days after thaw” value [1] was “improved cell viability compared to XT Formula alone”, the “cell survival 1 day after thaw” value [2] was “produced the greatest improvement in cell survival” and the “Critical Ethylene Glycol Concentration” value [3] was 15.0% (ν/ν).
With `CCC(C)NCC(=O)N(CC(=O)N(CC(=O)N(CC(=O)N(CC(=O)N(CC(=O)N(CC(=O)N(CC(=O)N(CC(=O)N(CC(N)=O)C(C)CC)C(C)CC)CC(C)O)CC(C)O)C(C)CC)C(C)CC)CC(C)O)CC(C)O)C(C)CC` (stereo not drawn) [Compound 12, Nsb-Nsb-Nhp-Nhp-Nsb-Nsb-Nhp-Nhp-Nsb-Nsb] the “cytotoxicity (cell persistence)” value [4] was “persisted about as well as cell incubated in cell culture media alone (DMEM)”, the “cell viability 7 days after thaw” value [1] was “improved cell viability compared to XT Formula alone” and the “vitrification on flash freezing in liquid nitrogen” value ([5]; 5 mg/ml (0.5% w/v) and buffer) was “complete vitrification with no ice formation; also recorded: vitrified”. For the same molecule, the “state after overnight in −20° C. freezer” value ([5]; 100 μL sample, 5 mg/ml) was “remained unfrozen”, the “ice formation after flash freezing (XRD)” value ([6]; 5 mg/mL (0.5% (w/v)), EG 17.5% (v/v) in water, stream of liquid nitrogen vapor) was “ice-free after flash freezing” and the “anti-icing effect in comparison to EG at the same molar concentration” value ([6]; 5 mg/mL with EG 17.5% (v/v)) was 500 times. For the same molecule, the “reduction of necessary EG concentration while preventing ice formation (XRD ice ring scores)” value ([6]; 1 and 5 mg/mL peptoid, EG 15-30% (v/v)) was “significantly reduced necessary EG concentrations while preventing ice formation”, the “post-thaw survival of the cells” value ([7]; formulation: 5 mg/mL of Compound 12 plus a mixture of glycols, disaccharides, and a general buffer, vitrification in liquid nitrogen, 16 hours post-thaw) was 98% and the “vitrification of cell sample during the freezing process” value ([7]; simple buffer, EG 22.5% (v/v), 5 mg/mL) was “complete vitrification without ice formation”. For the same molecule, the “cell survival after freeze-thaw” value ([7]; simple buffer, EG 22.5% (v/v), 5 mg/mL vs. same solution without compound, viability 12 hours post-thaw) was “greatly improved cell survival”, the “devitrification of cell sample on rewarming” value ([7]; simple buffer, EG 22.5% (v/v), 5 mg/mL vs. sample lacking compound) was “bypassed much more rapidly” and the “Critical Ethylene Glycol Concentration” value [3] was 15.0% (ν/ν). For the same molecule, the “toxicity by MTT assay” value ([8]; at 0.5% w/v, the concentration that prevents ice formation) was “did not show toxicity”, the “toxicity by MTT assay” value ([8]; at concentrations four times greater than 0.5% w/v) was “did not show significant toxicity” and the “toxicity by MTT assay” value ([8]; serial dilutions in culture media, 37° C., about 3 to 5 days) was “did not significantly deviate from the that of culture media alone”.
For `OCCO` [EG, ethylene glycol], the “ice crystal formation in capillary tube” value [9] was “significant ice crystal formation”.
